Molecules are shown by their SMILES.

Experiment [1] has as its system total IgA serum levels. As to the kind of experiment: Repeat and extension of atacicept and MMF combination experiment, total IgA by ELISA. It counts as in vivo, mice. The settings on record: for Numeric mean IgA: dosing until day 91. The protocol: (§1) Using similar procedures to those described in Example 3 and dosing until day 91, the results of Example 3 were replicated and extended in time to days 35, 91, 126, and 182.
(§2) Group 1 received both the vehicle for ATACICEPT and the vehicle for CellCept at the same treatment frequency as the treated groups. Group 2 was treated with only ATACICEPT
(§3) Group 3 received only CellCept. Group 4 received CellCept oral gavage followed by ATACICEPT s.c. injection within a period of approximately 30 minutes. The day of the first treatment was considered day 1 of the study. Throughout the study period clinical observations, hematological and blood chemistry tests, toxicokinetics and additional investigations were carried out.
(§4) Additional satellite groups of animals were used for total immunoglobulin determinations and antibody determination. They were treated and weighed according to the same procedures as the main study.
(§5) Blood samples were collected from 3 animals/sex/group (in progressive numerical order) for the determination of IgG, IgM and IgA serum levels at the following times:
(§6) from animals of groups 9, 10, 11 and 12:
(§7) • on day 34 of the 5-week treatment period • on day 90 of the 13-week treatment period • on day 34 of the 5-week recovery period • on day 90 of the 13-week recovery period
(§8) The blood (at least 0.8-1 mL) was collected at sacrifice from the abdominal aorta of mice after they have been completely anaesthetized with diethyl ether.
(§9) Samples were collected in tubes without any anticoagulant and allowed to clot for about 1 hour at room temperature. The clot were spun down by centrifugation at 3000 rpm at +4° C. for 15 minutes. Blood cells were discarded and the serum banked in 100 μL aliquots (four aliquots for every single analysis) and stored at −80° C. until analysis. Total IgG, IgM and IgA levels were determined by validated ELISA methods.

Experiment [2] deals with total serum IgM. As to the kind of experiment: 28-day atacicept and MMF co-administration study, total serum IgM by ELISA. It counts as in vivo, CD-1 mice. The protocol: (§10) Atacicept and MMF (CellCept) co-administration was tested in a 28-day study in CD-1 mice. One hundred fifty animals were distributed among four treatment groups. Group 1 received vehicle control articles used for both atacicept and MMF using the same route and regimen used for each test article. Group 2 received MMF (351 mg/kg) via daily oral gavage. Group 3 received atacicept (20 mg/kg) three times weekly via subcutaneous injection. Group 4 received atacicept (20 mg/kg, 3×/week, SC) and MMF (351 mg/kg, daily, oral), typically administered within 30 minutes of each other. […]
(§11) Animals were sacrificed at baseline (Day-1) and Days 14, 28 (last day of treatment), 42, 56, and 112. […] Body weights were measured and recorded on Day-1 of the study and weekly thereafter, and prior to sacrifice. […] Total serum IgG, IgM, and IgA were measured using a […] necropsies were conducted on sacrificed animals for evaluation of organ weight changes, gross pathology, and histopathology.
Total IgM levels were evaluated using a mouse IgM ELISA quantitation kit (Catalog #E90-101, Bethyl Laboratories, Montgomery, Tex.), combined with the ELISA Starter Accessory Package (Catalog #E101, Bethyl Laboratories, Montgomery, Tex.). […] The color reaction was stopped with addition of 2 M H2SO4, and the resulting absorbance (OD-450) was measured on a Spectramax 190 microplate reader. […]
For orientation: In an ELISA, binding on a coated surface is turned into a signal by an enzyme label.

Experiment [3] concerns total serum IgA. As to the kind of experiment: 28-day atacicept and MMF co-administration study, total serum IgA by ELISA. It counts as in vivo, CD-1 mice. The protocol:
as §10, §11
Total IgA levels were evaluated using a mouse IgA ELISA quantitation kit (Catalog #E90-103, Bethyl Laboratories, Montgomery, Tex.), combined with the ELISA Starter Accessory Package (Catalog #E101, Bethyl Laboratories, Montgomery, Tex.). […] The color reaction was stopped with addition of 2 M H2SO4, and the resulting absorbance (OD-450) was measured on a Spectramax 190 microplate reader. […]

In experiment [4] the test system is total IgG serum levels. As to the kind of experiment: Repeat and extension of atacicept and MMF combination experiment, total IgG by ELISA. It counts as in vivo, mice. Conditions: for Numeric mean IgG: dosing until day 91, atacicept 20 mg/kg s.c. 3/week, MMF 350 mg/kg/day oral. The protocol:
as §1, §2, §3, §4, §5, §6, §7, §8, §9

The test system of experiment [5] is total IgM serum levels. As to the kind of experiment: Repeat and extension of atacicept and MMF combination experiment, total IgM by ELISA. It counts as in vivo, mice. The settings on record: for Numeric mean IgM: dosing until day 91. The protocol:
as §1, §2, §3, §4, §5, §6, §7, §8, §9

Experiment [6] has as its system total serum IgG. As to the kind of experiment: 28-day atacicept and MMF co-administration study, total serum IgG by ELISA. It counts as in vivo, CD-1 mice. The protocol:
as §10, §11
Total IgG levels were evaluated using a mouse IgG ELISA quantitation kit (Catalog #E90-131, Bethyl Laboratories, Montgomery, Tex.), combined with the ELISA Starter Accessory Package (Catalog #E101, Bethyl Laboratories, Montgomery, Tex.). […] The color reaction was stopped with addition of 2 M H2SO4, and the resulting absorbance (OD-450) was measured on a Spectramax 190 microplate reader. […]

Setting [7] is: Day 28 (last day of treatment), MMF 351 mg/kg daily oral, atacicept 20 mg/kg 3x/week SC.
Where [8] appears, read: Day 28, positive = reduction versus vehicle.

As for `COc1c(C)c2c(c(O)c1C/C=C(\C)CCC(=O)OCCN1CCOCC1)C(=O)OC2` [MMF, mycophenolate mofetil], the “Difference from Vehicle, mean IgA (vehicle minus treatment)” value in experiment [1] (Sample Day 91) was -840.19 µg/mL; in experiment [1] (Sample Day 126) it was -353.57 µg/mL; in experiment [3] (setting [8]), -8 µg/mL. The “Numeric mean IgA” value amounted to 1764.55 µg/mL in experiment [1] (Sample Day 91, atacicept 20 mg/kg s.c. 3/week, MMF 350 mg/kg/day oral); 1467.05 µg/mL in experiment [1] (Sample Day 126 (recovery period)); 506 µg/mL in experiment [3] (setting [7]). Besides, the “Numeric mean IgM” value turned out to be 317 µg/mL in experiment [2] (setting [7]); 141.34 µg/mL in experiment [5] (Sample Day 35, atacicept 20 mg/kg s.c. 3/week, MMF 350 mg/kg/day oral); 53.77 µg/mL in experiment [5] (Sample Day 182 (recovery period)). The “Difference from Vehicle, mean IgM (vehicle minus treatment)” value in experiment [2] (setting [8]) is -79 µg/mL; in experiment [5] (Sample Day 35), -35.64 µg/mL; in experiment [5] (Sample Day 182) it was 20.18 µg/mL. Besides, the figures for the “Difference from Vehicle, mean IgG (vehicle minus treatment)” value in experiment [4] (Sample Day 35), in experiment [4] (Sample Day 91) and in experiment [6] (setting [8]) were -420.43 µg/mL, -495.86 µg/mL and -6 µg/mL, respectively. The “Numeric mean IgG” value in experiment [4] (Sample Day 35) is 940.13 µg/mL; in experiment [4] (Sample Day 91) it was 1192.87 µg/mL; in experiment [6] (setting [7]), 185 µg/mL.

The values above are taken from US8852591B2, “Combination of BLyS and/or APRIL inhibition and immunosuppressants for treatment of autoimmune disease” (Zymogenetics, Inc., priority 2007, dated 2014).
